Measured values: US11291666B2, “Uses” (INTRA-CELLULAR THERAPIES, INC., priority 2016, dated 2022)
Entries after “also recorded” stand apart in the source; their conditions may differ.

How the values were obtained:
[1] = test system: BV2 cells; experiment: Quantitative PCR of inflammatory cytokine mRNA in LPS-treated BV2 cells; format: cell-based, mouse
Description: Levels of IL1β are measured using quantitative PCR of IL1β mRNA. IL1β is considered a marker of inflammation. Results are depicted in FIG. 2 (RQ: relative quantification of changes in gene expression in treated versus control samples; ***p<0.01 vs control, √p<0.01 vs LPS alone; ANOVA with Newman-Keuls post-hoc test).
BV2 cells are pretreated with compound, ITI-214 or rolipram, a PDE4 inhibitor, then stimulated with 50 ng/ml LPS for 4 hours. Expression levels of TNF, IL1β, Ccl2, and IL6 are measured. Normalized mRNA levels are shown as change from vehicle (ΔΔCt) and compared using a one-way ANOVA. […] The mRNA transcripts for TNF, IL1β, and Ccl2—three of the four cytokines studied in vivo—were elevated in BV2 cells treated with 50 ng/ml LPS.
(§1) The test compound is added first, the LPS is added one hour later, and the cells and/or media are harvested at five hours from commencement of the experiment.
(§2) RTqPCR: RNA from BV2 cells purified using RNeasyKit (Qiagen) and from mouse tissue using TRIzol (Ambion). TaqMan primer-probe assays from Thermo Fisher. mRNA levels for all conditions are normalized to GAPDH and to vehicle control (ΔΔCt). Data are analyzed statistically using one-way ANOVA with the Bonferroni post-test for multiple comparisons.

[2] = test system: BV2 cells; experiment: as above; format: cell-based, mouse; details: LPS 10 microgram/ml, Compound 214 10 microgram/ml, FIG. 2
[3] = test system: C57Bl/6 mice; experiment: Chronic unpredictable stress (CUS) model, inflammatory markers and depression-like behaviors; format: in vivo, mouse; details: 10 mg/kg i.p. daily
Source text: This experiment compares the impact of chronic stress on the brain cytokine/chemokine profile in wild type mice vs PDE1B conditional knockout mice.
PDE1B conditional knockout mice are described in Siuciak J A, et al. “Behavioral and neurochemical characterization of mice deficient in the phosphodiesterase-1B (PDE1B) enzyme.” Neuropharmacology. 2007 July; 53(1):113-24. Protocols for CUS and other models of chronic stress are described in Monteiro, et al., “An Efficient Chronic Unpredictable Stress Protocol to Induce Stress-Related Responses in C57BL/6 Mice,” Front Psychiatry. 2015; 6: 6 and in Mann et al., “Chronic social defeat, but not restrain stress, alters bladder function in mice” Physiol. Behav. 2015; Oct. 15; 150: 83-92.
Generally, wild type (control) mice and PDE1B conditional knockout mice, as appropriate, are exposed to the chronic stress using restraint stress in shallow water model (RSSW) as described by Mann et al (2015), above. […] Control mice for these experiments are also maintained in single housing cages. In accordance the stress protocol, the mice are monitored for the depression-like behavior profile. Mice are then sacrificed and tissue samples are collected. […] Brain tissue and serum is analyzed for a panel of markers, including pro-inflammatory and anti-inflammatory cytokines and chemokines.
C57Bl/6 mice are subjected to the CUS protocol (14d, as described) or sham treatment, evaluated for depression-like behaviors at a specified time points, and sacrificed for collection of blood (serum preparation) and brain collection. Serum is analyzed for corticosterone (CORT) levels and other inflammatory markers. The brain is analyzed for a panel of inflammatory markers by qPCR (mRNA) and MSD (protein).
Mice are evaluated for depression-like behaviors at a specified time point to test the impact of the CUS protocol and of the PDE1 inhibitor treatment on the depression-like phenotype. […] Serum is analyzed for CORT levels and other inflammatory markers. Brain samples are analyzed for a panel for a panel of inflammatory markers by qPCR (mRNA) and MSD (protein). […]

[4] = test system: IL1β mRNA in the hippocampus; experiment: IL1β expression in hippocampus in vivo after LPS (quantitative PCR); details: mice; LPS 2 mg/kg s.c.; 10 mg/kg i.p.; six hours post injection; FIG. 3
Description: At six hours post injection, levels of IL1β in the hippocampus are measured via quantitative PCR of IL1β mRNA. IL1β is considered a marker of inflammation. Data are presented in FIG. 3 (***p<0.01 vs LPS alone, ANOVA with Newman-Keuls post-hoc test).

[5] = test system: BV2 cells; experiment: LPS-induced TNFα release from BV2 cells (ELISA); format: cell-based, mouse; details: 50 ng/ml LPS stimulation, FIG. 5
Description: TNFα release: TNFα levels are measured in BV2 conditioned media and normalized to cell protein levels. Inhibition of LPS-induced TNFα release from BV2 cells is depicted in FIG. 5.
as §1
TNFαELISA: Thermo Fisher mouse TNFα colorimetric, sandwich ELISA kit. Interpolatee values from standard curve. Dose response is fit to a 4-parameter logistic curve.

[6] = test system: inflammatory gene expression in mouse striatum; experiment: Inflammatory gene expression in mouse striatum after LPS (Q-PCR); format: in vivo
Description: as §2
The results are based upon an evaluation of samples using Q-PCR.
Data from a further experiment measuring the effect of PDE1 inhibition on inflammatory gene expression in mouse striatum is depicted in FIG. 7. […] Striatal tissue is isolated and flash frozen, and RNA is extracted. Measurements from RT-qPCR are shown as log 2 fold change (2ΔΔCt). n=4 *p<0.05, **p<0.01, ***p<0.001, ****p<0.0001.
Data from yet another experiment measuring the effect of PDE1 inhibition on inflammatory gene expression in mouse striatum is depicted in FIG. 8. […] Striatal tissue is analyzed for mRNA levels of TNF, IL1β, Ccl2, and IL6. Expression levels are shown as change in Q-PCR signal from vehicle (ΔΔCt) and compared using an ANOVA. * p<0.05, **p<0.01, ***p<0.001.

[7] = BV2 cells, 50 ng/ml LPS for 4 hours, 10 μM, FIG. 4b
[8] = BV2 cells, Compound 214 at 10 μM, FIG. 4a
[9] = Striatum Mouse + LPS, initial results
[10] = adult mice, 10 mg/kg i.p., 500 μg/kg LPS s.c. for 2 hours, FIG. 8
[11] = mouse striatum, 10 mg/kg i.p., LPS 500 μg/kg s.c., two hours, FIG. 7

For `CN1C(=O)c2c(nn(Cc3ccc(-c4cccc(F)n4)cc3)c2Nc2ccccc2)N2C1=N[C@@H]1CCC[C@@H]12` [Compound 214], the “Chemokine (C-C) motif Ligand 2 expression (Q-PCR)” value ([1]; BV2 + LPS, initial results) was “Down”, the “Interleukin 1 beta expression (Q-PCR)” value ([1]; BV2 + LPS, initial results) was “Down” and the “Tumor necrosis factor expression (Q-PCR)” value ([1]; BV2 + LPS, initial results) was “Down”. The “Ccl2 mRNA signal” value [1, 7] was “significantly decreased”, the “IL1β mRNA signal” value [1, 7] was “trended downward” and the “TNF mRNA signal” value [1, 7] was “significantly decreased”. For the same compound, the “LPS-induced increase in expression of Ccl2” value [1, 8] was “significantly reduces”, the “LPS-induced increase in expression of IL1β” value [1, 8] was “significantly reduces” and the “LPS-induced increase in expression of TNFα” value [1, 8] was “significantly reduces”. The “LPS-induced changes in proinflammatory markers” value ([1]; BV2 cells, separate experiment, FIG. 4b, 50 ng/ml LPS for 4 hours) was “greatly reduces or blunts”, the “LPS-induced increase in expression of IL1β (mRNA, quantitative PCR)” value [2] was “suppresses; also recorded: significantly blunts” and the “effect on tissue and serum markers and behaviors in PDE1B KO mice” value ([3]; PDE1B KO mice, CUS) was “no significant effect”. The “CUS-induced CNS and serum markers (proinflammatory)” value ([3]; normal C57Bl/6 mice, CUS 14d) was “significantly suppresses”, the “expression of depression-like behaviors” value ([3]; normal C57Bl/6 mice, CUS 14d) was “significantly suppresses” and the “LPS-induced increase in expression of IL1β in the hippocampus (mRNA)” value [4] was “suppresses; also recorded: significantly blunts”. For the same compound, the “LPS-induced TNFα release” value [5] was “dose-dependent inhibition”, the “Chemokine (C-C) motif Ligand 2 expression (Q-PCR)” value [6, 9] was “Down” and the “Oncostatin M expression (Q-PCR)” value [6, 9] was “Down”. For the same compound, the “expression of Ccl2 mRNA in striatum” value [6, 10] was “attenuates”, the “expression of TNF mRNA in striatum” value [6, 10] was “attenuates” and the “levels of IL1-beta mRNA in striatum” value [6, 10] was “trended to lower levels”. The “levels of IL6 mRNA in striatum” value [6, 10] was “trended to lower levels”, the “LPS stimulation of the pro-inflammatory cytokines TNFα, Ccl2, IL-1β, and IL-6” value [6, 11] was “inhibits” and the “expression of the anti-inflammatory cytokine IL-10” value [6, 11] was “significantly enhance”. The “LPS-induced inflammatory gene expression changes in mice” value ([6]; striatal tissue, 10 mg/kg i.p., 2 hours, FIG. 8) was “prevents”.
